# Reference: PubChem BioAssay (NCI)
#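 In this assay, cells in 96-well plates receive the compound at five concentrations for 48 hours. Endpoints are linearly interpolated between the surrounding concentrations. TGI: total growth inhibition.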
# Columns and labels:
# Assay in all cases: DTP human tumour cell line panel, 48 h
# HS 578T breast = system: HS 578T breast
# K-562 leukemia = system: K-562 leukemia
# RXF 393 renal = system: RXF 393 renal
# KM12 colon = system: KM12 colon
# ACHN renal = system: ACHN renal
# MDA-MB-435 = system: MDA-MB-435
# OVCAR-3 ovarian = system: OVCAR-3 ovarian
# 786-0 renal = system: 786-0 renal
# M14 melanoma = system: M14 melanoma
# A498 renal = system: A498 renal
# OVCAR-8 ovarian = system: OVCAR-8 ovarian
# OVCAR-5 ovarian = system: OVCAR-5 ovarian
# T-47D breast = system: T-47D breast
# MOLT-4 leukemia = system: MOLT-4 leukemia
# HOP-92 NSCLC = system: HOP-92 NSCLC
# DU-145 prostate = system: DU-145 prostate
# UACC-257 melanoma = system: UACC-257 melanoma
# MDA-N = system: MDA-N
# SNB-75 CNS = system: SNB-75 CNS
# SN12C renal = system: SN12C renal
# NCI-H522 lung = system: NCI-H522 lung
# UACC-62 melanoma = system: UACC-62 melanoma
# OVCAR-4 ovarian = system: OVCAR-4 ovarian
# MALME-3M melanoma = system: MALME-3M melanoma
# NCI/ADR-RES ovarian = system: NCI/ADR-RES ovarian
# SK-MEL-28 melanoma = system: SK-MEL-28 melanoma
# RPMI-8226 leukemia = system: RPMI-8226 leukemia
# HT29 colon = system: HT29 colon
# MDA-MB-231 breast = system: MDA-MB-231 breast
# HCT-15 colon = system: HCT-15 colon
# SK-MEL-2 melanoma = system: SK-MEL-2 melanoma
# SF-268 CNS = system: SF-268 CNS
# CCRF-CEM leukemia = system: CCRF-CEM leukemia
# CAKI-1 renal = system: CAKI-1 renal
# COLO 205 colon = system: COLO 205 colon
# BT-549 breast = system: BT-549 breast
# EKVX NSCLC = system: EKVX NSCLC
# PC-3 prostate = system: PC-3 prostate
# SNB-19 CNS = system: SNB-19 CNS
# A549 NSCLC = system: A549 NSCLC
# IGROV1 ovarian = system: IGROV1 ovarian
# U251 CNS = system: U251 CNS
# SK-OV-3 ovarian = system: SK-OV-3 ovarian
# MCF7 breast = system: MCF7 breast
# NCI-H460 lung = system: NCI-H460 lung
# HCT-116 colon = system: HCT-116 colon
# HCC-2998 colon = system: HCC-2998 colon
# HOP-62 NSCLC = system: HOP-62 NSCLC
# SF-295 CNS = system: SF-295 CNS
# UO-31 renal = system: UO-31 renal
# HL-60(TB) leukemia = system: HL-60(TB) leukemia
# NCI-H226 lung = system: NCI-H226 lung
# SR leukemia = system: SR leukemia
# SK-MEL-5 melanoma = system: SK-MEL-5 melanoma
# TK-10 renal = system: TK-10 renal
# LOX IMVI melanoma = system: LOX IMVI melanoma
# NCI-H23 lung = system: NCI-H23 lung
# SW-620 colon = system: SW-620 colon
smiles,measurement,setting,value
C#C[C@]1(O)CC[C@H]2[C@@H]3CCC4=C/C(=N/OC(=O)c5cccc6c(=O)c7ccccc7[nH]c56)CCC4[C@H]3CC[C@@]21CC (stereo partly drawn),TGI,HS 578T breast,> 100 µM
same,TGI,K-562 leukemia,> 82.3 µM
same,TGI,RXF 393 renal,12.6 µM
same,TGI,KM12 colon,> 100 µM
same,TGI,ACHN renal,> 100 µM
same,TGI,MDA-MB-435,> 100 µM
same,TGI,OVCAR-3 ovarian,> 61.1 µM
same,TGI,786-0 renal,> 39.6 µM
same,TGI,M14 melanoma,> 100 µM
same,TGI,A498 renal,> 100 µM
same,TGI,OVCAR-8 ovarian,> 100 µM
same,TGI,OVCAR-5 ovarian,> 100 µM
same,TGI,T-47D breast,> 75.9 µM
same,TGI,MOLT-4 leukemia,> 69.2 µM
same,TGI,HOP-92 NSCLC,> 100 µM
same,TGI,DU-145 prostate,> 100 µM
same,TGI,UACC-257 melanoma,> 88.1 µM
same,TGI,MDA-N,> 100 µM
same,TGI,SNB-75 CNS,> 100 µM
same,TGI,SN12C renal,> 100 µM
same,TGI,NCI-H522 lung,56.1 µM
same,TGI,UACC-62 melanoma,> 71.9 µM
same,TGI,OVCAR-4 ovarian,> 100 µM
same,TGI,MALME-3M melanoma,> 100 µM
same,TGI,NCI/ADR-RES ovarian,> 100 µM
same,TGI,SK-MEL-28 melanoma,> 100 µM
same,TGI,RPMI-8226 leukemia,10.6 µM
same,TGI,HT29 colon,> 50.7 µM
same,TGI,MDA-MB-231 breast,> 100 µM
same,TGI,HCT-15 colon,> 47.7 µM
same,TGI,SK-MEL-2 melanoma,> 100 µM
same,TGI,SF-268 CNS,> 100 µM
same,TGI,CCRF-CEM leukemia,> 54.1 µM
same,TGI,CAKI-1 renal,> 85 µM
same,TGI,COLO 205 colon,> 79.9 µM
same,TGI,BT-549 breast,87.8 µM
same,TGI,EKVX NSCLC,> 100 µM
same,TGI,PC-3 prostate,> 96 µM
same,TGI,SNB-19 CNS,> 100 µM
same,TGI,A549 NSCLC,> 100 µM
same,TGI,IGROV1 ovarian,> 100 µM
same,TGI,U251 CNS,> 100 µM
same,TGI,SK-OV-3 ovarian,> 100 µM
same,TGI,MCF7 breast,> 93.5 µM
same,TGI,NCI-H460 lung,> 100 µM
same,TGI,HCT-116 colon,> 100 µM
same,TGI,HCC-2998 colon,> 90.9 µM
same,TGI,HOP-62 NSCLC,> 100 µM
same,TGI,SF-295 CNS,> 100 µM
same,TGI,UO-31 renal,> 84.3 µM
same,TGI,HL-60(TB) leukemia,11.7 µM
same,TGI,NCI-H226 lung,> 100 µM
same,TGI,SR leukemia,35.7 µM
same,TGI,SK-MEL-5 melanoma,> 53.1 µM
same,TGI,TK-10 renal,> 100 µM
same,TGI,LOX IMVI melanoma,> 56.6 µM
same,TGI,NCI-H23 lung,> 100 µM
same,TGI,SW-620 colon,> 63.5 µM
COC(=O)[C@H](Cc1c[nH]c2ccccc12)NC(=O)c1ccccc1I,TGI,HS 578T breast,29.8 µM
same,TGI,K-562 leukemia,> 100 µM
same,TGI,RXF 393 renal,39.8 µM
same,TGI,KM12 colon,> 100 µM
same,TGI,ACHN renal,30.8 µM
same,TGI,MDA-MB-435,84.5 µM
same,TGI,OVCAR-3 ovarian,33.1 µM
same,TGI,786-0 renal,34.6 µM
same,TGI,M14 melanoma,32.4 µM
same,TGI,A498 renal,37.4 µM
same,TGI,OVCAR-8 ovarian,> 100 µM
same,TGI,OVCAR-5 ovarian,> 100 µM
same,TGI,T-47D breast,76.2 µM
same,TGI,MOLT-4 leukemia,56.9 µM
same,TGI,HOP-92 NSCLC,35.2 µM
same,TGI,DU-145 prostate,53.9 µM
same,TGI,UACC-257 melanoma,35.1 µM
same,TGI,MDA-N,42.6 µM
same,TGI,SNB-75 CNS,32.4 µM
same,TGI,SN12C renal,> 100 µM
same,TGI,NCI-H522 lung,30.9 µM
same,TGI,UACC-62 melanoma,34.1 µM
same,TGI,OVCAR-4 ovarian,> 100 µM
same,TGI,MALME-3M melanoma,35.8 µM
same,TGI,NCI/ADR-RES ovarian,> 100 µM
same,TGI,SK-MEL-28 melanoma,> 100 µM
same,TGI,HT29 colon,> 100 µM
same,TGI,MDA-MB-231 breast,> 100 µM
same,TGI,HCT-15 colon,> 100 µM
same,TGI,SK-MEL-2 melanoma,45.8 µM
same,TGI,SF-268 CNS,47 µM
same,TGI,CAKI-1 renal,50.6 µM
same,TGI,COLO 205 colon,33.3 µM
same,TGI,BT-549 breast,> 100 µM
same,TGI,EKVX NSCLC,> 100 µM
same,TGI,PC-3 prostate,59.3 µM
same,TGI,SNB-19 CNS,> 100 µM
same,TGI,A549 NSCLC,> 100 µM
same,TGI,IGROV1 ovarian,> 100 µM
same,TGI,U251 CNS,> 100 µM
same,TGI,SK-OV-3 ovarian,> 100 µM
same,TGI,MCF7 breast,> 100 µM
same,TGI,NCI-H460 lung,> 100 µM
same,TGI,HCT-116 colon,> 100 µM
same,TGI,HCC-2998 colon,82.6 µM
same,TGI,HOP-62 NSCLC,> 100 µM
same,TGI,SF-295 CNS,> 100 µM
same,TGI,UO-31 renal,33.4 µM
same,TGI,HL-60(TB) leukemia,54 µM
same,TGI,NCI-H226 lung,82.2 µM
same,TGI,SR leukemia,58.7 µM
same,TGI,SK-MEL-5 melanoma,29.6 µM
same,TGI,TK-10 renal,77.3 µM
same,TGI,LOX IMVI melanoma,44.8 µM
same,TGI,SW-620 colon,> 100 µM
